From patent US7300943B2, “GSK-3 inhibitors” (Pfizer Inc., priority 2003, dated 2007)
Structures can show the parent of a compound that is named as a salt.

Biological target: T1, GSK-3 (Homo sapiens, UniProt P49841)
T1 construct: made in house
Experiment: GSK-3 inhibition, cell-free 33P-ATP peptide substrate SPA assay
Format: biochemical
Settings: read-out: inhibitory activity, expressed as IC50's, against GSK-3
Method: The specific activities of the compounds of formula (I) in inhibiting GSK-3 can be determined in both cell-free and cell-based assays, both of which have been previously described in the relevant art. See, for example, U.S. Pat. Nos. 6,417,185 and 6,489,344, the disclosures of which are incorporated herein by reference in their entirety.
A cell-free assay can be generally carried out by incubating GSK-3 with a peptide substrate, radiolabeled ATP (e.g., for example, γ^33P- or γ^32P-ATP, both of which are available from Amersham; Arlington Heights, Ill.), magnesium ions, and the compound to be assayed. […] The amount of γ^33P or γ^32P remaining in each well after washing is then quantified to determine the amount of radiolabeled phosphate incorporated into the peptide substrate. […]
Another example of a GSK-3 assay, similar to the one described hereinabove, is as follows: enzyme activities are assayed as the incorporation of ^33P from gamma phosphate of ^33P-ATP (Amersham; Arlington Heights, Ill.; catalog #AH-9968) into biotinylated peptide substrate PKTP-KKAKKL. […] The final concentration of ATP is 0.5 μM (final specific radioactivity of 4 μCi/nmol), and the final concentration of substrate is 0.75 μM. […] Radioactivity associated with the beads is then quantified by scintillation counting. […]

T1 sequence (P49841 whole entry): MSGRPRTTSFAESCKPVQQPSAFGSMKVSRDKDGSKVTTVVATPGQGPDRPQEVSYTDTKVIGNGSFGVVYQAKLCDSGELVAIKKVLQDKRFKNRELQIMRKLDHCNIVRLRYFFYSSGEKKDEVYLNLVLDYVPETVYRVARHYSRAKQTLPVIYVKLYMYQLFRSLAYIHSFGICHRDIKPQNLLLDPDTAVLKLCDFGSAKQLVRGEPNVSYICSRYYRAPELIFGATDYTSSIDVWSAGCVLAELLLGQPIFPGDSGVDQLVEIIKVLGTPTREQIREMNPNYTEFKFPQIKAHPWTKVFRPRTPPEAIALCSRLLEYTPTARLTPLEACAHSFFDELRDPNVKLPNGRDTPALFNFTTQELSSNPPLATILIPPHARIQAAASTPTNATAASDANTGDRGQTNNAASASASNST

IC50: 36 nM
SMILES: O=c1cc(-c2ccccc2)c2c(C3CCC3)[nH]nc2[nH]1 [Example 5, 3-Cyclobutyl-4-phenyl-2,7-dihydro-pyrazolo[3,4-b]yridin-6-one hydrochloride]
